In PubChem BioAssay AID1918996 (Molecular Pharmacology Branch, DTP, NCI, 2023):
One block for each compound: values may come before it.

System: 349418-098-R-PDC complex spheroid growth
Assay: Anticancer human tumor 349418-098-R-PDC patient-derived lung adenocarcinoma cell line growth inhibition [AhR]
Conditions: for IC50: curve of first compound; for viability, T/C: stronger effect = lower value
Method in brief: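 Complex tumor spheroids co-cultured with HUVEC and human MSC stroma; AhR antagonists tested in combination with standard-of-care and investigational agents. Top concentration at or near clinical Cmax (else 10 microM), half-log dilutions; growth expressed as percent test/control.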

[1] = second compound 0.1 µM, first compound 0.0316 µM
[2] = second compound 0.1 µM, first compound 0.1 µM
[3] = second compound 0.1 µM, first compound 0.316 µM
[4] = second compound 0.1 µM, first compound 1 µM
[5] = second compound 0.316 µM, first compound 0.0316 µM
[6] = second compound 0.316 µM, first compound 0.1 µM
[7] = second compound 0.316 µM, first compound 0.316 µM
[8] = second compound 0.316 µM, first compound 1 µM
[9] = second compound 1 µM, first compound 0.0316 µM
[10] = second compound 1 µM, first compound 0.1 µM
[11] = second compound 1 µM, first compound 0.316 µM
[12] = second compound 1 µM, first compound 1 µM
[13] = second compound 3.16 µM, first compound 0.0316 µM
[14] = second compound 3.16 µM, first compound 0.1 µM
[15] = second compound 3.16 µM, first compound 0.316 µM
[16] = second compound 3.16 µM, first compound 1 µM
[17] = second compound 10 µM, first compound 0.0316 µM
[18] = second compound 10 µM, first compound 0.1 µM
[19] = second compound 10 µM, first compound 0.316 µM
[20] = second compound 10 µM, first compound 1 µM
[21] = second compound 0.1 µM, first compound 3.16 µM
[22] = second compound 0.1 µM, first compound 10 µM
[23] = second compound 0.316 µM, first compound 3.16 µM
[24] = second compound 0.316 µM, first compound 10 µM
[25] = second compound 1 µM, first compound 3.16 µM
[26] = second compound 1 µM, first compound 10 µM
[27] = second compound 3.16 µM, first compound 3.16 µM
[28] = second compound 3.16 µM, first compound 10 µM
[29] = second compound 10 µM, first compound 3.16 µM
[30] = second compound 10 µM, first compound 10 µM
[31] = second compound 0.1 µM, first compound 0.00949 µM
[32] = second compound 0.1 µM, first compound 0.03 µM
[33] = second compound 0.1 µM, first compound 0.0949 µM
[34] = second compound 0.1 µM, first compound 0.3 µM
[35] = second compound 0.316 µM, first compound 0.00949 µM
[36] = second compound 0.316 µM, first compound 0.03 µM
[37] = second compound 0.316 µM, first compound 0.0949 µM
[38] = second compound 0.316 µM, first compound 0.3 µM
[39] = second compound 1 µM, first compound 0.00949 µM
[40] = second compound 1 µM, first compound 0.03 µM
[41] = second compound 1 µM, first compound 0.0949 µM
[42] = second compound 1 µM, first compound 0.3 µM
[43] = second compound 3.16 µM, first compound 0.00949 µM
[44] = second compound 3.16 µM, first compound 0.03 µM
[45] = second compound 3.16 µM, first compound 0.0949 µM
[46] = second compound 3.16 µM, first compound 0.3 µM
[47] = second compound 10 µM, first compound 0.00949 µM
[48] = second compound 10 µM, first compound 0.03 µM
[49] = second compound 10 µM, first compound 0.0949 µM
[50] = second compound 10 µM, first compound 0.3 µM
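Further: spheroids exposed to agents for seven days before luminescence viability read.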
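Wherever viability, T/C is given: spheroids also contain HUVEC endothelial cells and human MSC stroma.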

SMILES: CC1COCCN1c1cc(C2(S(C)(=N)=O)CC2)nc(-c2ccnc3[nH]ccc23)n1 (stereo not given) + Cc1ccccc1N=Nc1ccc(NC(=O)c2ccnn2C)c(C)c1
IC50 (second compound 0.1 µM): 2080 nM
IC50 (second compound 0.316 µM): 2000 nM
IC50 (second compound 1 µM): 1960 nM
IC50 (second compound 3.16 µM): 2040 nM
IC50 (second compound 10 µM): 1030 nM
viability, T/C [1]: 87%
viability, T/C [2]: 110%
viability, T/C [3]: 86.5%
viability, T/C [4]: 83.6%
viability, T/C [21]: 31%
viability, T/C [22]: 14.4%
viability, T/C [5]: 87.8%
viability, T/C [6]: 78%
viability, T/C [7]: 78.6%
viability, T/C [8]: 89.7%
viability, T/C [23]: 27.7%
viability, T/C [24]: 13.4%
viability, T/C [9]: 89.2%
viability, T/C [10]: 123%
viability, T/C [11]: 86.8%
viability, T/C [12]: 66.8%
viability, T/C [25]: 39.9%
viability, T/C [26]: 16%
viability, T/C [13]: 90.8%
viability, T/C [14]: 76.9%
viability, T/C [15]: 97.9%
viability, T/C [16]: 79.3%
viability, T/C [27]: 31.8%
viability, T/C [28]: 15.3%
viability, T/C [17]: 69.5%
viability, T/C [18]: 70.1%
viability, T/C [19]: 56.6%
viability, T/C [20]: 55.5%
viability, T/C [29]: 28.9%
viability, T/C [30]: 17.1%

SMILES: COc1ccc([C@@H](O)c2cc(-c3ncnc4cc(N5CCOCC5)ccc34)c(F)cc2Cl)nn1 + Cc1ccccc1N=Nc1ccc(NC(=O)c2ccnn2C)c(C)c1
IC50 (second compound 0.1 µM): 1460 nM
IC50 (second compound 0.316 µM): 816 nM
IC50 (second compound 1 µM): 945 nM
IC50 (second compound 3.16 µM): 775 nM
IC50 (second compound 10 µM): 356 nM
viability, T/C [1]: 96.9%
viability, T/C [2]: 102%
viability, T/C [3]: 76.2%
viability, T/C [4]: 62.8%
viability, T/C [21]: 29.8%
viability, T/C [22]: 11.7%
viability, T/C [5]: 76.4%
viability, T/C [6]: 99.5%
viability, T/C [7]: 63.1%
viability, T/C [8]: 47.3%
viability, T/C [23]: 23.1%
viability, T/C [24]: 11%
viability, T/C [9]: 74.1%
viability, T/C [10]: 91.7%
viability, T/C [11]: 81.6%
viability, T/C [12]: 45.5%
viability, T/C [25]: 28.2%
viability, T/C [26]: 12%
viability, T/C [13]: 73.8%
viability, T/C [14]: 77.2%
viability, T/C [15]: 58%
viability, T/C [16]: 49.4%
viability, T/C [27]: 25.1%
viability, T/C [28]: 12.7%
viability, T/C [17]: 63.2%
viability, T/C [18]: 45.6%
viability, T/C [19]: 58.6%
viability, T/C [20]: 31.9%
viability, T/C [29]: 21.3%
viability, T/C [30]: 10%

SMILES: Nc1ncn(C2CC(O)C(CO)S2)c(=O)n1 (stereo not given) + Cc1ccccc1N=Nc1ccc(NC(=O)c2ccnn2C)c(C)c1
IC50 (second compound 0.1 µM): 90.5 nM
IC50 (second compound 0.316 µM): 80.4 nM
IC50 (second compound 1 µM): 63.9 nM
IC50 (second compound 3.16 µM): 109 nM
IC50 (second compound 10 µM): 56.9 nM
viability, T/C (second compound 0.1 µM, first compound 0.000949 µM): 116%
viability, T/C (second compound 0.1 µM, first compound 0.003 µM): 87.8%
viability, T/C [31]: 83.4%
viability, T/C [32]: 59.1%
viability, T/C [33]: 60.5%
viability, T/C [34]: 28.6%
viability, T/C (second compound 0.316 µM, first compound 0.000949 µM): 111%
viability, T/C (second compound 0.316 µM, first compound 0.003 µM): 63.5%
viability, T/C [35]: 105%
viability, T/C [36]: 70.2%
viability, T/C [37]: 47.7%
viability, T/C [38]: 26.6%
viability, T/C (second compound 1 µM, first compound 0.000949 µM): 91.5%
viability, T/C (second compound 1 µM, first compound 0.003 µM): 92.7%
viability, T/C [39]: 98.7%
viability, T/C [40]: 67.5%
viability, T/C [41]: 41.4%
viability, T/C [42]: 20.8%
viability, T/C (second compound 3.16 µM, first compound 0.000949 µM): 52.2%
viability, T/C (second compound 3.16 µM, first compound 0.003 µM): 72.7%
viability, T/C [43]: 72.2%
viability, T/C [44]: 66.2%
viability, T/C [45]: 54.5%
viability, T/C [46]: 18.1%
viability, T/C (second compound 10 µM, first compound 0.000949 µM): 73.6%
viability, T/C (second compound 10 µM, first compound 0.003 µM): 67.5%
viability, T/C [47]: 65.7%
viability, T/C [48]: 62.1%
viability, T/C [49]: 40.8%
viability, T/C [50]: 28.9%

The remaining compounds from weak to strong by IC50 (second compound 0.1 µM), led by results:

IC50 (second compound 0.1 µM): 71.3 nM
IC50 (second compound 0.316 µM): 102 nM
IC50 (second compound 1 µM): 72.5 nM
IC50 (second compound 3.16 µM): 70.7 nM
IC50 (second compound 10 µM): 39.1 nM
SMILES: CC1COCCN1c1cc(-c2ccnn2C)c2ccnc(-c3ccn[nH]3)c2n1 (stereo not given) + Cc1ccccc1N=Nc1ccc(NC(=O)c2ccnn2C)c(C)c1
viability, T/C (second compound 0.1 µM, first compound 0.00316 µM): 84.5%
viability, T/C (second compound 0.1 µM, first compound 0.01 µM): 96.5%
viability, T/C [1]: 61%
viability, T/C [2]: 47.9%
viability, T/C [3]: 13.9%
viability, T/C [4]: 10.5%
viability, T/C (second compound 0.316 µM, first compound 0.00316 µM): 64.4%
viability, T/C (second compound 0.316 µM, first compound 0.01 µM): 96.8%
viability, T/C [5]: 81%
viability, T/C [6]: 50.3%
viability, T/C [7]: 15.6%
viability, T/C [8]: 10.4%
viability, T/C (second compound 1 µM, first compound 0.00316 µM): 107%
viability, T/C (second compound 1 µM, first compound 0.01 µM): 111%
viability, T/C [9]: 78.6%
viability, T/C [10]: 39.4%
viability, T/C [11]: 15.8%
viability, T/C [12]: 11.3%
viability, T/C (second compound 3.16 µM, first compound 0.00316 µM): 61.6%
viability, T/C (second compound 3.16 µM, first compound 0.01 µM): 78.2%
viability, T/C [13]: 76.2%
viability, T/C [14]: 40.5%
viability, T/C [15]: 18.6%
viability, T/C [16]: 11.9%
viability, T/C (second compound 10 µM, first compound 0.00316 µM): 60.4%
viability, T/C (second compound 10 µM, first compound 0.01 µM): 61.9%
viability, T/C [17]: 55.4%
viability, T/C [18]: 26.9%
viability, T/C [19]: 17.3%
viability, T/C [20]: 12.9%

IC50 (second compound 0.1 µM): 17.6 nM
IC50 (second compound 0.316 µM): < 9.49 nM
IC50 (second compound 1 µM): < 9.49 nM
IC50 (second compound 3.16 µM): < 9.49 nM
IC50 (second compound 10 µM): < 9.49 nM
SMILES: O=C(C=Cn1cnc(-c2cc(C(F)(F)F)cc(C(F)(F)F)c2)n1)NNc1cnccn1 + Cc1ccccc1N=Nc1ccc(NC(=O)c2ccnn2C)c(C)c1
viability, T/C [31]: 67.2%
viability, T/C [32]: 35.2%
viability, T/C [33]: 17.2%
viability, T/C [34]: 11.2%
viability, T/C (second compound 0.1 µM, first compound 0.949 µM): 9.1%
viability, T/C (second compound 0.1 µM, first compound 3 µM): 7.11%
viability, T/C [35]: 37.7%
viability, T/C [36]: 25.4%
viability, T/C [37]: 16.2%
viability, T/C [38]: 12.2%
viability, T/C (second compound 0.316 µM, first compound 0.949 µM): 10.2%
viability, T/C (second compound 0.316 µM, first compound 3 µM): 5.73%
viability, T/C [39]: 37.8%
viability, T/C [40]: 29.9%
viability, T/C [41]: 19.4%
viability, T/C [42]: 11.9%
viability, T/C (second compound 1 µM, first compound 0.949 µM): 8.42%
viability, T/C (second compound 1 µM, first compound 3 µM): 5.99%
viability, T/C [43]: 47.9%
viability, T/C [44]: 33.7%
viability, T/C [45]: 16.9%
viability, T/C [46]: 11.4%
viability, T/C (second compound 3.16 µM, first compound 0.949 µM): 8.44%
viability, T/C (second compound 3.16 µM, first compound 3 µM): 7.46%
viability, T/C [47]: 34.6%
viability, T/C [48]: 22.8%
viability, T/C [49]: 18.5%
viability, T/C [50]: 13.8%
viability, T/C (second compound 10 µM, first compound 0.949 µM): 9.78%
viability, T/C (second compound 10 µM, first compound 3 µM): 7.95%
